Measurements taken from patent US20040171680A1, “Treating Syndrome X with substituted tetralins and indanes” (priority 2002, published 2004).
Read-outs that look alike come from different tables or passages of the source.

Molecular target: T1, PPARα (Rattus norvegicus, UniProt P37230)
T1 construct: H4IIE rat hepatoma cell line was obtained from ATCC; host or cells: H4IIE rat hepatoma cells
T1 sequence (P37230 1-468): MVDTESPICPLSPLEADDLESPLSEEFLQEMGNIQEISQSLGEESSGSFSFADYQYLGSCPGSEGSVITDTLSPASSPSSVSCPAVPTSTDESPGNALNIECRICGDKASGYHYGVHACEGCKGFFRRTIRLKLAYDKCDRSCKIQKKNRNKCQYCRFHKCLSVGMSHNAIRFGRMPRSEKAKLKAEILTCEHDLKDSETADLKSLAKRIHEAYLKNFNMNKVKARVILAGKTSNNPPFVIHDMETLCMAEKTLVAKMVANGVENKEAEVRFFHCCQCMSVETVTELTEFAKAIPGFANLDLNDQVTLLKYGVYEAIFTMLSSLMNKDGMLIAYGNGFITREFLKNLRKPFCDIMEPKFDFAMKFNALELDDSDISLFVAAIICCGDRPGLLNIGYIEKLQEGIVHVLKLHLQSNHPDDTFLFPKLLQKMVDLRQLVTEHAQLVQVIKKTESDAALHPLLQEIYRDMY
Test: HD bDNA Assay (HD gene induction)
Format: cell-based
Experimental: HD bDNA Assay H4IIE rat hepatoma cell line was obtained from ATCC. Cells were cultured in 175 cm^2 tissue culture flask or seeded in 96-well plate with (high serum content, 10% fetal bovine serum and 10% calf serum) culture medium and maintained at 37° C. and 5% CO2 throughout study. Twenty-four hours after the initial seeding of the 96-well plate by hand (approximate 100,000/well), the HD gene induction assay was initiated. Media was removed and replaced with 100 ul of low serum culture media (5% charcoal/dextran treated calf serum) containing vehicle (DMSO) or test compounds or standard. Cells returned to incubator for 24 hours culture. At the termination of the challenge, 50 ul lysis buffer with HD gene specific CE, LE, BL probes was added directly into each well to initiate the bDNA HD mRNA assay. The branched DNA assay was performed according to the manufacturer's protocol (Bayer Diagnostics; Emeryville. Calif.). At the end of the assay, the luminescence was quantitated in Dynex MLX microtiter plate luminometer. EC50's were determined by non-linear regression with a sigmoidal fit utilizing Graphpad Prism.

[1] = in section F, target not named there, values match the PPARα column, read-out: EC50
[2] = H4IIE rat hepatoma cells, 24 hours, read-out: PPARα EC50

Compound | EC50 [1] [nM] | EC50 [2] [nM]
CC(C)(Sc1ccc2c(c1)CC(N(CC1CCCCC1)C(=O)Nc1ccc(OC(F)(F)F)cc1)C2)C(=O)O (centres unmarked) [Example 40, 2-{2-[1-Cyclohexylmethyl-3-(4-trifluoromethoxyphenyl)ureido]indan-5-ylsulfanyl]-2-methylpropionic acid] | – | 1300
CCCCCN(C(=O)Nc1ccc2c(c1)CCC2)C1Cc2ccc(SC(C)(C)C(=O)O)cc2C1 (centres unmarked) [Example 29, 2-[2-(3-Indan-5-yl-1-pentylureido)indan-5-ylsulfanyl}-2-methylpropionic acid] | – | 382
COC(=O)CCCCCN(C(=O)Nc1ccc(C(C)C)cc1)C1Cc2ccc(SC(C)(C)C(=O)O)cc2C1 (centres unmarked) [Example 38, 6-[1-[5-(1-Carboxy-1-methylethylsulfanyl)indan-2-yl]-3-(4-isopropylphenyl)-ureido]hexanoic acid methyl ester] | – | 950
CN(C)CCN(C(=O)Nc1ccc(SC(F)(F)F)cc1)C1Cc2ccc(SC(C)(C)C(=O)O)cc2C1 (centres unmarked) [Example 43, 2-{2-[1-(2-Dimethylaminoethyl)-3-(4-trifluoromethylsulfanylphenyl)ureido]indan-5-ylsulfanyl}-2-methylpropionic acid] | – | 2990
CCCCCN(C(=O)Nc1ccc(C)c([N+](=O)[O-])c1)C1Cc2ccc(SC(C)(C)C(=O)O)cc2C1 (centres unmarked) [Example 30, 2-Methyl-2-{2-[3-(4-methyl-3-nitrophenyl)-1-pentylureido]indan-5-ylsulfanyl} propionic acid] | – | 385
CCCCN(C(=O)Nc1ccc(SC(F)(F)F)cc1)C1CCc2cc(SC(C)(C)C(=O)O)ccc2C1 (centres unmarked) [Example 23, 2-{6-[1-Butyl-3-(4-trifluoromethylsulfanylphenyl)ureido]-5,6,7,8-tetrahydronaphthalen-2-ylsulfanyl}-2-methylpropionic acid] | 244 | –
CC(C)CN(C(=O)Nc1ccc(OC(F)(F)F)cc1)C1Cc2ccc(SC(C)(C)C(=O)O)cc2C1 (centres unmarked) [Example 41, 2-{2-[1-Isobutyl-3-(4-trifluoromethoxyphenyl)ureido]indan-5-ylsulfanyl}-2-methylpropionic acid] | – | 2210
CC(C)(Sc1ccc2c(c1)CC(N(Cc1cccc3ccccc13)C(=O)Nc1ccc(OC(F)(F)F)cc1)C2)C(=O)O (centres unmarked) [Example 31, 2-Methyl-2-{2-[1-naphthalen-1 ylmethyl-3-(4-trifuoromethoxyphenyl)-ureido]indan-5-ylsulfanyl}-propionic acid] | – | 497

Continued, values first:

EC50 [1] [nM] | EC50 [2] [nM] | Compound
219 | – | CCCCN(C(=O)Nc1ccc(OC(F)(F)F)cc1)C1CCc2cc(SC(C)(C)C(=O)O)ccc2C1 (centres unmarked) [Example 22, 2-{6-[1-Butyl-3-(4-trifluoromethoxyphenyl)ureido]-5,6,7,8-tetrahydronaphthalen-2-ylsulfanyl}-2-methylpropionic acid]
– | 2340 | CCCCCCCN(C(=O)Nc1ccc(Cl)c(Cl)c1)C1Cc2ccc(SC(C)(C)C(=O)O)cc2C1 (centres unmarked) [Example 42, 2-{2-[3-(3,4-Dichlorophenyl)-1-heptylureido]indan-5-ylsulfanyl}-2-methylpropionic acid]
– | 780 | CCCCCCCN(C(=O)Nc1ccc(OC(F)(F)F)cc1)C1Cc2ccc(SC3(C(=O)O)CCC3)cc2C1 (centres unmarked) [Example 45, 1-{2-[1-Heptyl-3-(4-trifluoromethoxyphenyl)ureido]indan-5-ylsulfanyl}-cyclobutanecarboxylic acid]
– | 294 | CN(C)c1ccc(NC(=O)N(C)C2Cc3ccc(SC(C)(C)C(=O)O)cc3C2)cc1 (centres unmarked) [Example 27, 2-{2-[3-(4-Dimethylaminophenyl)-1-methylureido]indan-5-ylsulfanyl}-2-methylpropionic acid]
235 | – | CCCCCCN(C(=O)Nc1ccc(OC(F)(F)F)cc1)C1CCc2cc(SC(C)(C)C(=O)O)ccc2C1 (centres unmarked) [Example 24, 2-{6-[1-Hexyl-3-(4-trifluoromethoxyphenyl)ureido]-5,6,7,8-tetrahydronaphthalen-2-ylsulfanyl}-2-methylpropionic acid]
– | 2090 | CCCCCCCN(C(=O)Nc1cccc(Cl)c1)C1Cc2ccc(SC(C)(C)C(=O)O)cc2C1 (centres unmarked) [Example 44, 2-{2-[3-(3-Chlorophenyl)-1-heptylureido]indan-5-ylsulfanyl}-2-methylpropionic acid]
